Assay results published in patent US6355635B1, “Compounds for the treatment of obesity” (Pfizer Inc., priority 1999, dated 2002).

System: endogenous NPY response
Assay: Endogenous NPY response in Bowes melanoma host cells
Settings: 10 uM; human Bowes melanoma cells (HMCB), low levels of Y1 responses
Method: This plasmid construct is used along with calcium phosphates to stably transfect human Bowes melanoma cells (HMCB; obtained from ATCC, Rockville, Md.), a cell line in which several Gαi-linked receptors are expressed at reasonable levels and are coupled to functional responses. Cells are maintained at 37° C. and 5% CO2 in Eagle's minimum essential medium with 0.1 mM non-essential amino acids, 1.0 mM sodium pyruvate and 25 mM HEPES which is supplemented with 10% fetal bovine serum (pH 7.3).

## NC(N)=NCCC[C@@H](NC(=O)C(c1ccccc1)c1ccccc1)C(=O)NCc1ccc(O)cc1 [BIBP3226]
  block of the endogenous NPY response: completely blocks
